# Measurements published in EP2386300A1, “Use of dronedarone for the preparation of a medicament for use in the prevention of cardiovascular hospitalization or of mortality in patients having a first recurrence of atrial fibrillation or atrial flutter” (SANOFI, priority 2010, dated 2011).
# Counter-ions that a name gives are not always drawn.
# Test system: patients having a history of atrial fibrillation or atrial flutter
# Test: Prospective, multinational, multicentre, double-blind, placebo-controlled clinical study (ATHENA); analysis restarting the clock at first AF/AFL recurrence
# Assay type: in vivo
# Procedure: More particularly, the effects of dronedarone compared with placebo on cardiovascular (CV) end points were evaluated by restarting the clock at the time of first atrial fibrillation or atrial flutter recurrence detected in a scheduled ECG or requiring cardioversion.
# The patients had to have a history of atrial fibrillation or flutter and/or could be in normal sinus rhythm or in atrial fibrillation or flutter at inclusion.
# The patient recruitment was carried out by taking into account the following inclusion criteria:
# • 1) One of the following risk factors had to be present: • age equal to or greater than 70 years, • hypertension (taking antihypertensives of at least two different classes), • diabetes, • history of cerebral stroke (transient ischemic event or completed cerebral stroke) or of systemic embolism, • left atrial diameter greater than or equal to 50 mm measured by echocardiography, • left ventricular ejection fraction less than 40%, measured by two-dimensional echography; or • age equal to or above 70, or even above 75, possibly combined with at least one of the risk factors below: • o hypertension (taking antihypertensives of at least two different classes), • o diabetes, • o history of cerebral stroke (transient ischemic event or completed cerebral stroke) or of systemic embolism, • o left atrial diameter greater than or equal to 50 mm measured by echocardiography, • o left ventricular ejection fraction less than 40%, measured by two-dimensional echography; • 2) availability of an electrocardiogram carried out during the past 6 months in order to document the presence or the history of atrial fibrillation or flutter; • 3) availability of an electrocardiogram carried out during the past 6 months in order to document the presence or absence of normal sinus rhythm.
# • Patients in permanent atrial fibrillation • Patients in unstable hemodynamic condition such as acute pulmonary edema within 12 hours prior to start of study medication; cardiogenic shock; treatment with IV pressor agents; patients on respirator; congestive heart failure of stage NYHA IV within the last 4 weeks; uncorrected, hemodynamically significant primary obstructive valvular disease; hemodynamically significant obstructive cardomyopathy; a cardiac operation or revascularization procedure within 4 weeks preceding randomization • Planned major non-cardiac or cardiac surgery or procedures including surgery for valvular heart disease, coronary artery bypass graft (CABG), percutaneous coronary intervention (PCI), or on urgent cardiac transplantation list • Acute myocarditis or constrictive pericarditis • Bradycardia < 50 bpm and/or PR-interval ≥ 0.28 sec on the last 12-lead ECG. • Significant sinus node disease (documented pause of 3 seconds or more) or 2nd or 3rd degree atrioventricular block (AV-block) unless treated with a pacemaker.
# • Plasma potassium < 3.5 mmol/I (as anti-arrhythmic drugs can be arrhythmogenic in patients with hypokalemia, this must be corrected prior to randomization. • A calculated GFR at baseline < 10 ml/min using the Cockroft Gault formula (GFR [ml/min] = (140 - AGE [years] * WEIGHT [kilograms] * CONSTANT / CREATININE [µmol/L], where CONSTANT is 1 for men and 0.85 for women )^i
# Treatment was initiated using tablets containing either the placebo or an amount of dronedarone hydrochloride corresponding to 400 mg of dronedarone at a rate of twice a day with the morning and evening meal and more specifically at a rate of one tablet in the morning during or shortly after breakfast and one tablet in the evening during or shortly after dinner.
# The anticipated duration of the treatment was variable according to the time at which each patient was included in the study, and could range from a minimum of 12 months for the last patient included up to a maximum corresponding to the entire duration of the study (12 months + duration of inclusion), i.e. approximately 30 months for the first patients included.
# [1] = 1 - relative risk, versus placebo, after first AF/AFL recurrence
Structure (SMILES),reduction in cardiovascular hospitalizations [1] [%],reduction in cardiovascular hospitalizations or deaths [1] [%],reduction in cardiovascular mortality [1] [%],reduction of death [1] [%],"cardiovascular deaths (673 treated patients with a first AF/AFL recurrence, placebo 35) [cardiovascular deaths]","deaths (mortality from any cause) (673 treated patients with a first AF/AFL recurrence, placebo 51 deaths) [deaths]","events, cardiovascular hospitalizations (673 treated patients with a first AF/AFL recurrence, placebo 288 events) [events]","events, cardiovascular hospitalizations or mortality (principal judgement criterion) (673 treated patients with a first AF/AFL recurrence, placebo 306 events) [events]","relative risk, cardiovascular hospitalizations or deaths (versus placebo, Cox model, after first AF/AFL recurrence, p = 0.0025)","relative risk, cardiovascular hospitalizations (versus placebo, Cox model, after first AF/AFL recurrence, p = 0.0048)","relative risk, death from any cause (versus placebo, Cox model, after first AF/AFL recurrence, p = 0.018)","relative risk, cardiovascular mortality (versus placebo, Cox model, after first AF/AFL recurrence, p = 0.0342)","primary composite end point occurred in patients (after a first AF recurrence, CV hospitalization or all-cause mortality, placebo 306) [patients]","primary composite end point occurred in patients (%) (after a first AF recurrence, placebo 38.6%)","patients hospitalized for worsening heart failure (including pulmonary edema or dyspnea of cardiac origin) (after first AF/AFL recurrence, placebo 5.0%) [%]","patients hospitalized for AF (after first AF/AFL recurrence, placebo 21.2%) [%]","total time spent in hospital (all patients with a first AF/AFL recurrence, placebo 1789 nights, P < 0.01) [nights]","percentage of hospitalization time spent in intensive care units (compared with the placebo group, P = 0.01, Figure 3)","first AF recurrence (percentage of patients with a first AF recurrence, placebo 34.1%) [%]"
CCCCc1oc2ccc(NS(C)(=O)=O)cc2c1C(=O)c1ccc(OCCCN(CCCC)CCCC)cc1 [dronedarone hydrochloride],23,24,47,44,15,23,195,205,0.76,0.77,0.56,0.53,–,–,–,–,–,–,–
"CCCCc1oc2ccc(NS(C)(=O)=O)cc2c1C(=O)c1ccc(OCCCN(CCCC)CCCC)cc1 [dronedarone, 2-n-Butyl-3-[4-(3-di-n-butylaminopropoxy)benzoyl]-5-methylsulphonamidobenzofuran]",–,–,–,–,–,–,–,–,–,–,–,–,205,30.5,3.6,15.8,1273,lower,29.3
